Measurements reported in US20130005825A1, “Inhibition of the Survival of Lymphoma by Cyclohexenone Compounds from Antrodia Camphorata” (Golden Biotechnology Corporation, priority 2009, published 2013).

System: lymphoma cell line U937
Test: In vitro survival assay (MTT) for anti-lymphoma effects
Format: cell-based
Details: Homo sapiens, U-937, U937 cells, 48 hours treatment, read-out: IC50 (half inhibition concentration), survival of lymphoma cells
Method: Inhibiting effects of lymphoma cells by cyclohexenone compounds of Antrodia camphorata from example 1 were assessed according to the anticancer-drug screening model of National Cancer Institute (NCI). The compound 4-hydroxy-2,3-dimethoxy-6-methyl-5-(3,7,11-trimethyl-dodeca-2,6,10-trienyl)-cyclohex-2-enone from example 1 was added into the culture media of lymphoma cell line U937 to determine the survival rates. Survival of cell was analyzed using MTT assay. U937 cell line was a human histiocytic lymphoma cell line.
MTT assay is commonly used to analyze cell proliferation, survival rate of viable cells and cytotoxicity. MTT (3[4,5-dimethylthiazol-2-yl]-2,5-diphenyltetrazolium bromide) is a yellow dye which can be converted to water-insoluble purple formazan on the reductive cleavage of its tetrazolium ring by the succinate tetrazolium reductase in mitochondria of cells. The amount of formazan produced is used to detect the number of viable cells and calculate the survival rates.
The U937 cells were cultivated in RPMI 1640 medium supplemented with 10% fetal bovine serum, 10 U/ml of Penicillin and 100 μg/ml of Streptomycin at 37° C., 5% CO2 for 24 hours. […] The absorbances were measured at 570 nm with an ELISA Reader to determine the survival rates.

Structure (SMILES): COC1=C(OC)C(O)C(C/C=C(\C)CC/C=C(\C)CCC=C(C)C)C(C)C1=O (stereo not shown) [formula 2, 4-hydroxy-2,3-dimethoxy-6-methyl-5-(3,7,11-trimethyl-dodeca-2,6,10-trienyl)-cyclohex-2-enone]
- IC50: 9.71 µg/mL
